Target: NK-1 receptor (Meriones unguiculatus, UniProt Q5DUB1)
Experiment: GR73632-induced hindlimb scratching behaviour in the Mongolian gerbil
Assay type: in vivo
Details: all doses tested (from 0.1 to 10.0 mg/kg)
From the text: 5) Particularly the antipruritic effect of orvepitant maleate was determinated in GR73632-induced scratching behaviour in the Mongolian gerbil. According to this metholody the scratching behaviour was induced by GR73632 which is a specific agonist of the NK-1 receptor.
72 male Mongolian gerbils (58-78 g) after a minimum habituation period of 10 days prior to study commencement, were acclimatised to the procedure room in their home cages, with food and water available ad libitum. The day before the experiment was due to commence a 1 cm×1 cm squared area between the shoulder blades was shaved free of hair.
Habituation to the apparatus (custom made observation chambers; approximately 30×30 cm; 2 animals per observation) took place 30 minutes prior to induction of scratching behaviours using GR73632.
A 10 mg/kg stock solution of orvepitant maleate was made by dissolving 20 mg of orvepitant maleate Form 1 in 20 mls of vehicle (5% DMSO & 95% HPMC (0.5%)). This stock solution was serially diluted to prepare doses of 0.1, 0.3, 1.0, 3.0 or 10 mg/kg orvepitant maleate.
At T=−60 mins mongolian gerbils were dosed with orvepitant maleate (0.1, 0.3, 1.0, 3.0 or, 10 mg/kg p.o.). Gerbils were allocated to dosing groups based on a Latin square design. 30 Minutes later (T=−30 mins) gerbils were placed into the observation chamber for 30 minutes habituation. At T=0 Gerbils were then dosed with GR73632 (30 nmol/100 uL; i.d.) between the shoulder blades and their subsequent hindlimb scratching behaviour recorded using GeoVision surveillance software over a 30 minute period.
Playing back of the video served for counting scratching behaviour. […] Cumulative frequency and duration (secs) of scratching was scored in 5 min epochs. Treatment groups were randomised based on a Latin Square design. The experimenter was blinded to the treatment groups.
Repeated measures ANOVA followed by Planned comparison test using GraphPad Prism. (p<0.05 considered significant). Data were analysed by comparing treatment groups to control group at each time point.

NK-1 receptor, sequence (Q5DUB1 whole entry): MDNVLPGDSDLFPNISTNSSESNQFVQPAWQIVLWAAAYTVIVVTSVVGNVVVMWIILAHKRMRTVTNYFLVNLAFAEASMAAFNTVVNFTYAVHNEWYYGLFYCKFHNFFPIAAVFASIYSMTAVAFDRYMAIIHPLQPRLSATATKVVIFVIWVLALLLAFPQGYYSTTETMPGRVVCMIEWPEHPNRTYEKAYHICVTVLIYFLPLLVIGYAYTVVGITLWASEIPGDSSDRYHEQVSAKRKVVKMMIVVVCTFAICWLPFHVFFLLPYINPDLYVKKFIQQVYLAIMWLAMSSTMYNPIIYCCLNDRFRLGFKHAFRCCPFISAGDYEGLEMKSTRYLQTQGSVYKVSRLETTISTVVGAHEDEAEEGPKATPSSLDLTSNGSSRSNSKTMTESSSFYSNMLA

inhibition of GR73632 induced hindlimb scratching: profound inhibition
Compound: Cc1cc(F)ccc1[C@H]1C[C@@H](N2CCN3C(=O)CC[C@H]3C2)CCN1C(=O)N(C)[C@H](C)c1cc(C(F)(F)F)cc(C(F)(F)F)c1 [Orvepitant, 2-(R)-(4-Fluoro-2-methyl-phenyl)-4-(S)-((8aS)-6-oxo-hexahydro-pyrrolo[1,2-a]-pyrazin-2-yl)-piperidine-1-carboxylic acid [1-(R)-(3,5-bis-trifluoromethyl-phenyl)-ethyl]-methylamide]

— patent US9603849B2, “Uses of orvepitant” (NERRE THERAPEUTICS LIMITED, priority 2012, dated 2017)
